Read-outs that look alike come from different tables or passages of the source.
Columns and labels:
[1] = molecular target: HCK (Homo sapiens, UniProt P08631); test: KINOMEscan competition binding assay
[2] = molecular target: SRC (Homo sapiens, UniProt P12931); test: KINOMEscan competition binding assay
[3] = molecular target: FYN (Homo sapiens, UniProt P06241); test: KINOMEscan competition binding assay
[4] = molecular target: T1, ABL-1-nonphosphorolated (Homo sapiens, UniProt P00519); conditions: ABL1
[5] = molecular target: LCK (Homo sapiens, UniProt P06239); test: KINOMEscan competition binding assay
[6] = molecular target: T2, PIK4CB (Homo sapiens, UniProt Q9UBF8); test: KINOMEscan competition binding assay
T2 construct: purchased Eurofins DiscoverX Corporation (KINOMEscan); host or cells: E. coli BL21-derived host (T7 phage) or HEK-293
T2 sequence (Q9UBF8 whole entry): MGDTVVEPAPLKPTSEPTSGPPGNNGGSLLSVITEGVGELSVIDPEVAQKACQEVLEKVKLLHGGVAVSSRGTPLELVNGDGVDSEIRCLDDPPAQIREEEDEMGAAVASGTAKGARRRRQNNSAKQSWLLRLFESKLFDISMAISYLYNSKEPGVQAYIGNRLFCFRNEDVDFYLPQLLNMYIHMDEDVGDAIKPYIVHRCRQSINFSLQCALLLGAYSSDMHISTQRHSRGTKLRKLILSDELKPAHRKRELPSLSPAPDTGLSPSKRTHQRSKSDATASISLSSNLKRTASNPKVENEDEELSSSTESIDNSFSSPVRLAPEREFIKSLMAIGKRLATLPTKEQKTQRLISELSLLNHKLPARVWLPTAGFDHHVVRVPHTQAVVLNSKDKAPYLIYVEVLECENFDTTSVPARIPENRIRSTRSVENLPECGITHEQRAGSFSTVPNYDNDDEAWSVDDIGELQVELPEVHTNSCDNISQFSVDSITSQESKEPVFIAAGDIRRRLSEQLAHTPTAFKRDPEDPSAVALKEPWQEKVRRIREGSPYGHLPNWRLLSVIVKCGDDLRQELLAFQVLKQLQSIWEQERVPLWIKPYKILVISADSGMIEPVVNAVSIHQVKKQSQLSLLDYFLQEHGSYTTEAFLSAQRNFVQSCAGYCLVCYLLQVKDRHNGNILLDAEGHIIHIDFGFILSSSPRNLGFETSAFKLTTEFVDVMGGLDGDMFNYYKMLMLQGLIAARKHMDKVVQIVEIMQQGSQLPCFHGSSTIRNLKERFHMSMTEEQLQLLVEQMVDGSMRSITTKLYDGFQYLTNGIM
Procedure: (§1) The ligand-bound beads were blocked with excess biotin and washed with blocking buffer (SeaBlock (Pierce), 1% BSA, 0.05% Tween 20, 1 mM DTT) to remove unbound ligand and to reduce nonspecific binding. […] Kds were determined using an 11-point 3-fold compound dilution series with three DMSO control points.
(§2) Each was a final volume of 0.02 ml.

[7] = molecular target: T3, PDGFR-β (Homo sapiens, UniProt P09619); test: KINOMEscan competition binding assay
T3 construct: purchased Eurofins DiscoverX Corporation (KINOMEscan); host or cells: E. coli BL21-derived host (T7 phage) or HEK-293
Procedure: as §1, §2

[8] = molecular target: T4, FGR (Homo sapiens, UniProt P09769); test: KINOMEscan competition binding assay
T4 construct: purchased Eurofins DiscoverX Corporation (KINOMEscan); host or cells: E. coli BL21-derived host (T7 phage) or HEK-293
Procedure: as §1, §2

[9] = molecular target: T5, PDGFR-α (Homo sapiens, UniProt P16234); test: KINOMEscan competition binding assay
T5 construct: purchased Eurofins DiscoverX Corporation (KINOMEscan); host or cells: E. coli BL21-derived host (T7 phage) or HEK-293
T5 sequence (P16234 24-1089): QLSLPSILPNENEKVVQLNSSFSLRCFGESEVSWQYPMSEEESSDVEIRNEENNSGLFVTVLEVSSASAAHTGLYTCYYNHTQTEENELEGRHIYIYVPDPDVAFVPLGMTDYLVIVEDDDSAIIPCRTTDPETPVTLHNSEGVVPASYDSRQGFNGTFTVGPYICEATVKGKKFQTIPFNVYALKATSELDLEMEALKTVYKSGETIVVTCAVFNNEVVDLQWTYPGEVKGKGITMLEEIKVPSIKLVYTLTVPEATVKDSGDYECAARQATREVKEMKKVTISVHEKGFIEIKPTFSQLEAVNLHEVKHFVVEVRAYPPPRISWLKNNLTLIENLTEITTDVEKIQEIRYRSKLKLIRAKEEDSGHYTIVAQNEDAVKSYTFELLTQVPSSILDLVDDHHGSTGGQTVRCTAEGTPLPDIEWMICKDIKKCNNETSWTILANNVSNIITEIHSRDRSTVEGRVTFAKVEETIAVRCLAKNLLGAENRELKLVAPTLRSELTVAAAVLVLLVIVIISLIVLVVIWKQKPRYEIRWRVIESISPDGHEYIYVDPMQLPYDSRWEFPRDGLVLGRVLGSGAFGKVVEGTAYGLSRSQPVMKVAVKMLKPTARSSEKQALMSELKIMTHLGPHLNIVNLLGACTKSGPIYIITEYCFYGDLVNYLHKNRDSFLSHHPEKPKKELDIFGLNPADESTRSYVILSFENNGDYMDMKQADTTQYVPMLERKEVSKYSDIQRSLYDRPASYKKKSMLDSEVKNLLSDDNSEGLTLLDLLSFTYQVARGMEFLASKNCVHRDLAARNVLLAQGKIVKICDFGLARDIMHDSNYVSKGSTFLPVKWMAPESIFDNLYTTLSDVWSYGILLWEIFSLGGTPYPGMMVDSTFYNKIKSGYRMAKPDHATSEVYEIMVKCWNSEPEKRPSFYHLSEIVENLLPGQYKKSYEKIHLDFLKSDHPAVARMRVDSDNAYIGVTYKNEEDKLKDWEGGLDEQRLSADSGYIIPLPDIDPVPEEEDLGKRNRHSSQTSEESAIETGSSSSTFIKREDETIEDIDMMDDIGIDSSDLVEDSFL
Procedure: as §1, §2

[10] = molecular target: T6, LYN (Homo sapiens, UniProt P07948); test: KINOMEscan competition binding assay
T6 construct: purchased Eurofins DiscoverX Corporation (KINOMEscan); host or cells: E. coli BL21-derived host (T7 phage) or HEK-293
T6 sequence (P07948 whole entry): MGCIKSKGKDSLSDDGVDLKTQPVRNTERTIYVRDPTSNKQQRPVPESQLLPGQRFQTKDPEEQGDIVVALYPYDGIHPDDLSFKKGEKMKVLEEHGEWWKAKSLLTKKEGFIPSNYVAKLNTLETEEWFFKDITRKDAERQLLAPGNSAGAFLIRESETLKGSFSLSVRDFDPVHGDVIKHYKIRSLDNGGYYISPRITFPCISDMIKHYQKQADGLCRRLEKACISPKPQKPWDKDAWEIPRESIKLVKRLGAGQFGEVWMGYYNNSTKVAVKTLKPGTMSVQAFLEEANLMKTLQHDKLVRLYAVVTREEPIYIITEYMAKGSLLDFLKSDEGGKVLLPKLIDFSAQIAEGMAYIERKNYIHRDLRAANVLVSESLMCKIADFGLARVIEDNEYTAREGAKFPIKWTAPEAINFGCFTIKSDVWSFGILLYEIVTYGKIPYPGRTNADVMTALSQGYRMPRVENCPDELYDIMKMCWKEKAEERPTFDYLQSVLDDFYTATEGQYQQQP
Procedure: as §1, §2

[11] = molecular target: T7, RET (Homo sapiens, UniProt P07949); test: KINOMEscan competition binding assay
T7 construct: purchased Eurofins DiscoverX Corporation (KINOMEscan); host or cells: E. coli BL21-derived host (T7 phage) or HEK-293
T7 sequence (P07949 29-1114): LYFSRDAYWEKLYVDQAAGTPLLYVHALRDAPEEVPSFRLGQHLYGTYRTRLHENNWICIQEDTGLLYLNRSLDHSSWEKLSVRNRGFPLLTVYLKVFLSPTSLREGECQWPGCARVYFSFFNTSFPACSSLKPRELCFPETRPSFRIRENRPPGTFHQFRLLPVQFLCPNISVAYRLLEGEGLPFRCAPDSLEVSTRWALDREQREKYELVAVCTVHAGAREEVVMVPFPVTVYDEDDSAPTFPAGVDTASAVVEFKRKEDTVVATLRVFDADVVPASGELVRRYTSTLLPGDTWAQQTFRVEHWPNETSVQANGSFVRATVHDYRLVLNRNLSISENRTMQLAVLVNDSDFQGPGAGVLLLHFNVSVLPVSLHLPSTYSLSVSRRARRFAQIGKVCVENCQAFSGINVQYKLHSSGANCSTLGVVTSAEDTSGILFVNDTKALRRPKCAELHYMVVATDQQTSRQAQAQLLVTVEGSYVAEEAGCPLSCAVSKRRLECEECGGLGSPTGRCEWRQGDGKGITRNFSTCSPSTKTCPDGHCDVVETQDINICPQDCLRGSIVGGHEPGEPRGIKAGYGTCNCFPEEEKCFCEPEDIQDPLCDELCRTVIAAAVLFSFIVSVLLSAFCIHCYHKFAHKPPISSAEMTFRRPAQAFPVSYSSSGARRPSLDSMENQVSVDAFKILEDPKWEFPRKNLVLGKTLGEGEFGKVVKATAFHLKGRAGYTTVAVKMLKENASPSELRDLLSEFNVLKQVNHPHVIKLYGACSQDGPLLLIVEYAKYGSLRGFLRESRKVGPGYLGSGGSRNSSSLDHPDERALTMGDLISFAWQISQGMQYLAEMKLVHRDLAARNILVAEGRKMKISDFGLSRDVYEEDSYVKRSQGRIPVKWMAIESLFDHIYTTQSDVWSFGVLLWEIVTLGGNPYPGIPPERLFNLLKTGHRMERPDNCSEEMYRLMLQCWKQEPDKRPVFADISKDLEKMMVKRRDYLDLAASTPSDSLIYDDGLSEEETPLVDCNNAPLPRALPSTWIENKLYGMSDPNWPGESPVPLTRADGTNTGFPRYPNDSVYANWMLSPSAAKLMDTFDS
Procedure: as §1, §2

[12] = molecular target: T8, DDR2 (Homo sapiens, UniProt Q16832); test: KINOMEscan competition binding assay
T8 construct: purchased Eurofins DiscoverX Corporation (KINOMEscan); host or cells: E. coli BL21-derived host (T7 phage) or HEK-293
T8 sequence (Q16832 22-855): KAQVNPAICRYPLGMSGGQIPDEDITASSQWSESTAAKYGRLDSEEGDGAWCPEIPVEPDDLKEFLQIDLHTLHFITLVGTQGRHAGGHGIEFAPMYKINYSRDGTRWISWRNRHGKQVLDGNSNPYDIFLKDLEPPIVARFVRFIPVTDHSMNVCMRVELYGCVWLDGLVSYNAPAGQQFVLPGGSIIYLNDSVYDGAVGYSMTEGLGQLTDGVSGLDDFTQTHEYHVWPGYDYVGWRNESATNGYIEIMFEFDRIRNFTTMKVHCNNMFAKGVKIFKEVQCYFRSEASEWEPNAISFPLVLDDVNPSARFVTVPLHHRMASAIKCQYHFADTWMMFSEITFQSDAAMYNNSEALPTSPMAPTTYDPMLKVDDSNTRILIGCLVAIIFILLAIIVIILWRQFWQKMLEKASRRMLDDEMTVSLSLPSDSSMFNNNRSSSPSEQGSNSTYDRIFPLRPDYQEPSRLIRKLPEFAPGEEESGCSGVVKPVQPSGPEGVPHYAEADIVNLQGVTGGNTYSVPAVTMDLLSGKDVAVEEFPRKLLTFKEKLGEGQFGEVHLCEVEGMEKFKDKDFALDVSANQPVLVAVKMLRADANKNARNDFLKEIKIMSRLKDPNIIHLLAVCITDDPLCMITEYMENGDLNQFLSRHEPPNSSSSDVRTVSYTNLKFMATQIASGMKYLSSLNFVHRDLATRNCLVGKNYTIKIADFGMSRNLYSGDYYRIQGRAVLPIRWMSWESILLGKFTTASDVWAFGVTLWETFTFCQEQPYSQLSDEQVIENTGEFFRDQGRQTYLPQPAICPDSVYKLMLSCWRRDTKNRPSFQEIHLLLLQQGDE
Procedure: as §1, §2

[13] = molecular target: T9, VEGFR2 (Homo sapiens, UniProt P35968); test: KINOMEscan competition binding assay
T9 construct: purchased Eurofins DiscoverX Corporation (KINOMEscan); host or cells: E. coli BL21-derived host (T7 phage) or HEK-293
T9 sequence (P35968 20-1356): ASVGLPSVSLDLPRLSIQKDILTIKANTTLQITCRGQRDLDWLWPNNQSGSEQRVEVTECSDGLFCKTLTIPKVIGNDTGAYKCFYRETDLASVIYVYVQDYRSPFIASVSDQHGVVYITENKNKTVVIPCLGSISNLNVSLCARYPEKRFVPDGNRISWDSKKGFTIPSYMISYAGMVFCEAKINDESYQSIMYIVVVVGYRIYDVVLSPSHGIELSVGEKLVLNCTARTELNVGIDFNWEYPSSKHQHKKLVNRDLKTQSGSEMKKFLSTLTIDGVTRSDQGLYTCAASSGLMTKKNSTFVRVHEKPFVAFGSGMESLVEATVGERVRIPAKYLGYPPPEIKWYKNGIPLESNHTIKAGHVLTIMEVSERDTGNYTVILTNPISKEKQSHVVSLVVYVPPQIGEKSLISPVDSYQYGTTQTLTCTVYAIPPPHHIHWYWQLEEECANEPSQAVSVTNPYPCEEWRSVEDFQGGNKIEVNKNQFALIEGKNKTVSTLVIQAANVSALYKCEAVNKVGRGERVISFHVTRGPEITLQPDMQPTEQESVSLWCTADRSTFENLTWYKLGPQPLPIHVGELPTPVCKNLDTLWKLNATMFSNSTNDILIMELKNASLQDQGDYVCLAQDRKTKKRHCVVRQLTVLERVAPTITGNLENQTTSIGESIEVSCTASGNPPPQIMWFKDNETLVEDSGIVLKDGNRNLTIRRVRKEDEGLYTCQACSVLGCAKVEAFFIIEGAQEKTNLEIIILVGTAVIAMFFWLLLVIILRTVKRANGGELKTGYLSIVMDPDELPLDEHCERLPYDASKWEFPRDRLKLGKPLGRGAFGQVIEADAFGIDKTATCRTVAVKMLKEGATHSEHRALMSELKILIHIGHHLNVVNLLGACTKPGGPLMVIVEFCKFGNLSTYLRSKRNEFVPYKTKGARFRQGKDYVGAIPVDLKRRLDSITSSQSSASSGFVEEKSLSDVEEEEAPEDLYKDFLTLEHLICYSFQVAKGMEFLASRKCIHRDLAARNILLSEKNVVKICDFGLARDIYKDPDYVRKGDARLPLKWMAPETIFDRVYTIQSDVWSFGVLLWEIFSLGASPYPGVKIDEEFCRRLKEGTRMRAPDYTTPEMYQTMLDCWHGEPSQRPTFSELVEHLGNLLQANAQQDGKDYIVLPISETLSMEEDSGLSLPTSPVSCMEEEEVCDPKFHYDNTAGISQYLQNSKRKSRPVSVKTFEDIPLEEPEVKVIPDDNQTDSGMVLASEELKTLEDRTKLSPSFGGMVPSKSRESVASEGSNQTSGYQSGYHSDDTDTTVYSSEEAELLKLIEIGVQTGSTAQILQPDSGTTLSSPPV
Procedure: as §1, §2

[14] = molecular target: KIT (Homo sapiens, UniProt P10721); test: KINOMEscan competition binding assay
[15] = molecular target: CSF1R (Homo sapiens, UniProt P07333); test: biochemical
[16] = molecular target: DDR1 (Homo sapiens, UniProt Q08345); test: KINOMEscan competition binding assay
[17] = molecular target: FLT4 (Homo sapiens, UniProt P35916); test: KINOMEscan competition binding assay
[18] = molecular target: T1, ABL-1-nonphosphorolated; test: biochemical; conditions: read-out: Compound Activity Remaining at 1 μM (%)
[19] = molecular target: FRK (Homo sapiens, UniProt P42685); test: KINOMEscan competition binding assay
[20] = molecular target: T10, phosphatidylinositol 5-phosphate 4-kinase type-2 gamma (PI42C) (Homo sapiens, UniProt Q8TBX8); test: KINOMEscan competition binding assay
T10 construct: purchased Eurofins DiscoverX Corporation (KINOMEscan); host or cells: E. coli BL21-derived host (T7 phage) or HEK-293
T10 sequence (Q8TBX8 1-421): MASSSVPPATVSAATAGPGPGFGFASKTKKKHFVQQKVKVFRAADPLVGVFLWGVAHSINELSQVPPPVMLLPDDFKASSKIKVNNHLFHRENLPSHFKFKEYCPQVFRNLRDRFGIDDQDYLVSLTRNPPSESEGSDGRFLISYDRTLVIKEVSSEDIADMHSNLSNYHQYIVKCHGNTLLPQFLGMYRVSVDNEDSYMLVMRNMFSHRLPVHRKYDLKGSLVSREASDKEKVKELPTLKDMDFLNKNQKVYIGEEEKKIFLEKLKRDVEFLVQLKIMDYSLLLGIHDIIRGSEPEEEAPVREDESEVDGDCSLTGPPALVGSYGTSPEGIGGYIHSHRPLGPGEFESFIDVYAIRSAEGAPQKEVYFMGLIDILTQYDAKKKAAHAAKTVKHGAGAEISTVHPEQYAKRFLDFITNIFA
Procedure: The ligand-bound beads were blocked with excess biotin and washed with blocking buffer (SeaBlock (Pierce), 1% BSA, 0.05% Tween 20, 1 mM DTT) to remove unbound ligand and to reduce nonspecific binding. […] Test compounds were prepared as 111× stocks in 100% DMSO. Kds were determined using an 11-point 3-fold compound dilution series with three DMSO control points.
as §2

[21] = read-out: Compound Activity Remaining at 1 μM (%)

Compound: COc1ccc(-c2cncc(N[C@@H](C)c3cccc(NC(=O)c4cncc(C)c4)c3)n2)cc1OC [Compound B]
- Kd [1]: 36 nM
- remaining binding at 1 µM [1, 21]: 3.3%
- Kd [2]: 130 nM
- remaining binding at 1 µM [2, 21]: 6.4%
- Kd [3]: 55 nM
- remaining binding at 1 µM [3, 21]: 9.7%
- kinase found to be inhibited [4]: inhibited
- Kd [5]: 22 nM
- remaining binding at 1 µM [5, 21]: 1.1%
- Kd [6]: 150 nM
- remaining binding at 1 µM ([6]; 1 μM compound): 3.8%
- Kd [7]: 0.82 nM
- remaining binding at 1 µM ([7]; 1 μM compound): 0%
- Kd [8]: 92 nM
- remaining binding at 1 µM ([8]; 1 μM compound): 21%
- Kd [9]: 4 nM
- remaining binding at 1 µM ([9]; 1 μM compound): 0.35%
- Kd [10]: 24 nM
- remaining binding at 1 µM ([10]; 1 μM compound): 7.3%
- Kd [11]: 19 nM
- remaining binding at 1 µM ([11]; 1 μM compound): 3.9%
- Kd [12]: 19 nM
- remaining binding at 1 µM ([12]; 1 μM compound): 1.8%
- Kd [13]: 15 nM
- remaining binding at 1 µM ([13]; 1 μM compound): 0.25%
- Kd [14]: 4.7 nM
- remaining binding at 1 µM [14, 21]: 0%
- Kd [15]: 6.1 nM
- remaining activity at 1 µM [15, 21]: 0.7%
- Kd [16]: 3.5 nM
- remaining binding at 1 µM [16, 21]: 0.2%
- Kd [17]: 18 nM
- remaining binding at 1 µM [17, 21]: 12%
- remaining activity at 1 µM [18]: 3.3%
- Kd [19]: 11 nM
- remaining binding at 1 µM [19, 21]: 5.3%

Compound: imatinib [Compound A, reference compound]
- Compound Activity Remaining at 1 μM (%) ([6]; 1 μM compound): 59%
- Compound Activity Remaining at 1 μM (%) ([7]; 1 μM compound): 0.15%
- Compound Activity Remaining at 1 μM (%) ([8]; 1 μM compound): 70%
- Compound Activity Remaining at 1 μM (%) ([9]; 1 μM compound): 0.95%
- Compound Activity Remaining at 1 μM (%) ([10]; 1 μM compound): 30%
- Kd [11]: > 10000 nM
- Compound Activity Remaining at 1 μM (%) ([11]; 1 μM compound): 98%
- Compound Activity Remaining at 1 μM (%) ([12]; 1 μM compound): 0.8%
- Compound Activity Remaining at 1 μM (%) ([13]; 1 μM compound): 70%
- kinase found to be inhibited [20]: inhibited
- Compound Activity Remaining at 1 μM (%) ([14]; KIT, 1 μM compound): 0.5%
- Kd ([17]; FLT4): > 10000 nM
- Compound Activity Remaining at 1 μM (%) ([17]; FLT4, 1 μM compound): 87%

Source: patent US20200360477A1, “INHALABLE FORMULATIONS FOR KINASE INHIBITION” (Aerovate Therapeutics, Inc., priority 2019, published 2020)
